According to article doi:10.1101/2025.06.03.657556v1 (biorxiv, 2025):

Columns and labels:
RhoA = RhoA (Homo sapiens, UniProt P61586); assay: surface plasmon resonance; assay type: binding
RhoA (HEK 293F cells) = RhoA (HEK 293F cells) (Homo sapiens, UniProt P61586); assay: fluorescent RhoA-GTP probe, F488/F405 ratio, HEK […] cells; assay type: cell-based
RhoA (HEK 293F cells), sequence (P61586 1-190): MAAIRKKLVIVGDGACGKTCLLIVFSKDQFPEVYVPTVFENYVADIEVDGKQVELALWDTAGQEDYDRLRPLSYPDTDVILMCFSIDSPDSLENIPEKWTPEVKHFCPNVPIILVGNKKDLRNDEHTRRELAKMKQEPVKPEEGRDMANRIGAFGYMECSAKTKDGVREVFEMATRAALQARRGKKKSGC

RhoA, sequence (P61586 1-190): as above

Kd (RhoA): 73.2 nM
IC50 (RhoA (HEK 293F cells)): 25.7 ± 1.18 nM
Structure (SMILES): CCc1cccc([C@@H](O)CO)c1 [AH001]
